# Laboratory results published in patent US6579874B2, “Substituted azoles” (Novartis AG, priority 1999, dated 2003).
# Structures can show the parent of a compound that is named as a salt.
# Key:
# [1] = system: TNF-α release from hPBMCs; test: Assay for Inhibition of TNF-α Release from hPBMCs (IFNg/LPS stimulated, ELISA); assay type: cell-based; settings: Homo sapiens, 3 h, IFNg (100 U/ml) and LPS, three hours, TNF-α in supernatant by ELISA, read-out: IC50 for suppression of TNF release
# Description: Assay for Inhibition of TNF-α Release from hPBMCs
# Human peripheral blood mononuclear cells (hPBMCs) are prepared from the peripheral blood of healthy volunteers using ficoll-hypaque density separation according to the method of Hansell et al., J. Imm. Methods (1991) 145: 105. and used at a concentration of 10^5 cells/well in RPMI 1640 plus 10% FCS. Cells are incubated with serial dilutions of the test compounds for 30 minutes at 37° C. prior to the addition of IFNg (100 U/ml) and LPS ([…]) and subsequently further incubated for three hours. Incubation is […] by centrifugation at 1400 RPM for 10 min. TNF-α in the supernatant is measured using a commercial ELISA (Innotest hTNFa, available from Innogenetics N.V., Zwijnaarde, Belgium). Agents of the Invention are tested at concentrations of from […]. Exemplified Agents of the Invention typical suppress TNF release in this assay with an IC50 of from about 500 nM to about 10 nM or less when tested in this assay.
# p38 MAP kinase = target: T1, p38 MAP kinase (Mus musculus, UniProt P47811); test: p38 MAP Kinase Assay (phosphorylation of GST-ATF-2, ELISA detection); assay type: biochemical, murine; settings: His-p38 MAP kinase, GST-ATF-2 substrate, ATP 120 μM, 1 h at 37° C.; read-out: IC50 for p38 MAP kinase inhibition
# T1 construct: a fusion protein comprising full length murine p38 MAP kinase and a His tag; host or cells: E. coli
# Description: The substrate (GST-ATF-2; a fusion protein comprising amino acids 1-109 of ATF-2 and the GST protein obtained by expression in E. coli) is coated onto the webs of microtiter plates (50 μl/well; 1 μg/ml in PBS/0.02% Na azide) overnight at 4° C. The following day, the microtiter plates are washed four times with PBS/0.5% Tween 20/0.02% Na azide and are blocked with PBS/2% BSA/0.02% Na Azide for 1 h at 37° C. Plates are washed again 4 times with PBS/0.5% Tween 20/0.02% Na azide. The kinase cascade reaction is then started by adding the following reactants in 10 μl aliquots to a final reaction volume of 50 μl.
# 1. Agents of the Invention titrated from 10 to 0.001 μM in 10-fold dilutions or solvent (DMSO) or H2O.
# 2. Kinase buffer (5×); pH 7.4; 125 mM Hepes (Stock at 1M; Gibco #15630-056), 125 mM β-glycerophosphate (Sigma #G-6251):125 mM MgCl2 (Merck #5833); 0.5 mM Sodium orthovanadate (Sigma #5-6508), 10 mM DTT (Boehringer Mannheim #708992). The (5×) kinase buffer must be prepared fresh the day of the assay from 5× stock solutions kept at RT. DTT is kept at −20° C. and is added as the last reagent.
# 3. His-p38 MAP kinase (10 ng/well; Novartis—a fusion protein comprising full length murine p38 MAP kinase and a His tag, obtained by expression in E. coli)
# 4. cold ATP (final concentration 120 μM; Sigma #A-9187)
# After 1 h at 37° C. the kinase reaction is terminated by washing the plates four times as previously described. Phosphorylated GST-ATF-2 is then detected by adding:
# 1. the PhosphoPlus ATF-2 (Thr71) Antibody (50 μl/well; 1/1000 final dilution in PBS/2% BSA/0.02% Na Azide; New England Biolabs #9221L) for 90 min at RT.
# 2. Biotin labelled goat-anti-rabbit IgG (50 μl/well; 1/3000 final dilution in PBS/2% BSA/0.02% Na Azide; Sigma #B-9642) for 90 min at RT.
# 3. Streptavidin-alkaline phosphatase (50 μl/well; 1/5000 dilution in PBS/2% BSA/0.02% Na Azide; Jackson Immunoresearch #016-050-84) for 30 min at RT.
# 4. Substrate (100 μl/well; Sigma 104 Phosphatase substrate tablets, 5 mg/tablet; #104-105; 1 mg/ml in substrate buffer, Diethanolamine (97 ml/l; Merck #803116)+MgCl2.6H2O (100 mg/l; Merck #5833)+Na Azide (0.2 g/l)+HCl 1M to pH 9.8) 30 min at RT.
# After step 1, 2 and 3 the microtiter plates are washed four times with PBS/0.5% Tween 20/0.02% Na azide. After step 4, the plates are read in a Bio-Rad microplate reader in a dual wavelength mode (measurement filter […] and reference filter […]). The background value (without ATP) is subtracted and IC50 values are calculated using the Origin computer program (4 parameter logistic function).
# T1 sequence (P47811 whole entry, the tested form may be a part): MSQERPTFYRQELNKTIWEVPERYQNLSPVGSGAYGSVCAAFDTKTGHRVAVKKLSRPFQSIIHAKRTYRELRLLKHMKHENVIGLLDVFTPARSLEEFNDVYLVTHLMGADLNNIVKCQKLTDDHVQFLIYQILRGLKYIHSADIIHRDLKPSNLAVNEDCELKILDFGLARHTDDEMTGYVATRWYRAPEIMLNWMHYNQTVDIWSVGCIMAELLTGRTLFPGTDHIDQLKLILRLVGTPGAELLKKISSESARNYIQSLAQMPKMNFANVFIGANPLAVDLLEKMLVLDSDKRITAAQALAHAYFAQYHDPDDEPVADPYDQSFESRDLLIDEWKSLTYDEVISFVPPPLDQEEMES
IC50 [1] [nM],IC50 (p38 MAP kinase) [nM],Structure (SMILES),melting point [°C]
1 to 10,1 to 10,"C[C@H](Nc1nccc(-n2cc(-c3ccncc3)nc2-c2ccc(F)cc2)n1)c1ccccc1 [Example 35, 2-(4-Fluorophenyl)-1-(2-[1-(S)-phenyl-ethyl]amino-4-pyrimidyl) 4-(4-pyridyl)imidazole]",
1 to 10,1 to 10,"C[C@H](Nc1nccc(-n2cc(-c3cccc(Cl)c3)nc2-c2ccc(F)cc2)n1)c1ccccc1 [Example 49, 2-(4-Fluorophenyl)-1-(2-[1-(S)-phenyl-ethyl]amino-4-pyrimidyl)-4-(3-chlorophenyl)imidazole]",
1 to 10,,"C[C@H](Nc1nccc(-n2cc(/C=N/NC(=N)N)nc2-c2ccc(F)cc2)n1)c1ccccc1 [Example 50, 2-(4-Fluorophenyl)-1-(2-[1-(S)-phenyl-ethyl]amino-4-pyrimidyl)-4-methyleneaminoguanidinyl-imidazole]",
1 to 10,1 to 10,C[C@H](Nc1nccc(-n2cc(C3CCNCC3)nc2-c2ccc(F)cc2)n1)c1ccccc1 [Example 52],
1 to 10,,"C[C@H](Nc1nccc(-n2cc(C3CCN(C=O)CC3)nc2-c2ccc(F)cc2)n1)c1ccccc1 [Example 53, 2-(4-Fluorophenyl)-1-(2-(1-(S)-phenylethyl)amino-4-pyrimidyl)-4-(4-formyl)-piperidine-1-yl Imidazole]",
1 to 10,,C[C@H](Nc1nccc(-n2cc(C3CCN(CC(C)(C)O)CC3)nc2-c2ccc(F)cc2)n1)c1ccccc1 [Example 54],
1 to 10,,"C[C@H](Nc1nccc(-n2cc(C3CCN(C)CC3)nc2-c2ccc(F)cc2)n1)c1ccccc1 [Example 56, 2-(4-Fluorophenyl)-1-(2-(1-(S)-phenylethyl)amino-4-pyrimidyl)-4-(4-methyl)-piperidine-1-yl Imidazole]",

# Further lines, the compound ahead of its results:
Structure (SMILES),IC50 [1] [nM],IC50 (p38 MAP kinase) [nM],melting point [°C]
"CN1CCC(O)(c2cn(-c3ccnc(NC4CCCC4)n3)c(-c3cccc(C(F)(F)F)c3)n2)CC1 (as salt: fumarate) [Example 33, 2-(3-Trifluoromethylphenyl)-4-(1-methyl-4-hydroxypiperidin-4-yl)-1-(2-cyclopentylamino-4-pyrimidyl)imidazole]",,,189 to 193
C[C@H](Nc1nccc(-c2oc(C3CCN(C)CC3)nc2-c2ccc(F)cc2)n1)c1ccccc1 [Example 4],1 to 10,,
"C[C@H](Nc1nccc(-c2oc(C3CCNCC3)nc2-c2ccc(F)cc2)n1)c1ccccc1 [Example 8, 4-(4-Fluorophenyl)-5-(2-[1-(S)-phenylethyl]amino-4-pyrimidyl)-2-(4-NH-piperidine-1-yl)oxazole]",1 to 10,,
"Fc1ccc(-c2nc(C3CCNCC3)oc2-c2ccnc(NCC3CC3)n2)cc1 [Example 9, 4-(4-Fluorophenyl)-5-(2-cyclopropylmethylamino-4-pyrimidyl)-2-(4-NH-piperidin-1-yl)oxazole]",1 to 10,1 to 10,
C[C@H](Nc1cc(-c2oc(C3(O)CCN(C)CC3)nc2-c2ccc(F)cc2)ccn1)c1ccccc1 [Example 14],,1 to 10,
CN1CCC(O)(c2nc(-c3ccc(F)cc3)c(-c3ccnc(NCC4CC4)c3)o2)CC1 [Example 15],,1 to 10,
"Fc1ccc(-c2nc(C3CCNCC3)oc2-c2ccnc(NCC3CC3)c2)cc1 [Example 19, 4-(4-Fluorophenyl)-2-(4-NH-piperidine-1-yl)-5-(2-cyclopropylmethylamino-4-pyridyl)oxazole]",1 to 10,,
"CC(C)(O)CN1CCC(c2nc(-c3ccc(F)cc3)c(-c3ccnc(NCC4CC4)c3)o2)CC1 [Example 20, 4-(4-Fluorophenyl)-2-(4-N-(2-hydroxy-2-methyl)propylpiperidine-1-yl)-5-(2-cyclopropylmethylamino-4-pyridyl)oxazole]",1 to 10,,
"CC(C)(O)CN1CCC(c2nc(-c3ccc(F)cc3)c(-c3ccnc(NC4CCCCC4)c3)o2)CC1 [Example 23, 4-(4-Fluorophenyl)-2-(4-N-(2-hydroxy-2-methyl)propylpiperidine-1-yl)-5-(2-cyclohexylamino-4-pyridyl)oxazole]",1 to 10,,
CN1CCC(O)(c2cn(-c3ccnc(NC4CCCCC4)n3)c(-c3ccc(F)cc3)n2)CC1 [Example 31],1 to 10,,
"CN1CCC(O)(c2cn(-c3ccnc(NC4CC4)n3)c(-c3cccc(C(F)(F)F)c3)n2)CC1 [Example 32, 2-(3-Trifluoromethylphenyl)-4-(1-methyl-4-hydroxypiperidin-4-yl)-1-(2-cyclopropylamino-4-pyrimidyl)imidazole]",1 to 10,,
"CN1CCC(O)(c2cn(-c3ccnc(NC4CCCC4)n3)c(-c3cccc(C(F)(F)F)c3)n2)CC1 [Example 33, 2-(3-Trifluoromethylphenyl)-4-(1-methyl-4-hydroxypiperidin-4-yl)-1-(2-cyclopentylamino-4-pyrimidyl)imidazole]",1 to 10,,
"CCOC(=O)N1CCC(c2cn(-c3ccnc(N[C@@H](C)c4ccccc4)n3)c(-c3ccc(F)cc3)n2)CC1 [Example 51, 2-(4-Fluorophenyl)-1-(2-(1-(S)-phenylethyl)amino-4-pyrimidyl)-4-(4-ethoxycarbonyl)piperidine-1-yl Imidazole]",1 to 10,1 to 10,
CC(C)(O)CN1CCC(c2cn(-c3ccnc(NC4CCCC4)n3)c(-c3ccc(F)cc3)n2)CC1 [Example 55],1 to 10,,
"C[C@H](Nc1nccc(-n2cc([C@]3(O)C[C@H]4CC[C@@H](C3)N4C(=O)OC(C)(C)C)nc2-c2ccc(F)cc2)n1)c1ccccc1 [Example 59, 2-(4-Fluorophenyl)-1-(2-(1-(S)-phenylethyl)amino-4-pyrimidyl)-4-(3a-hydroxy-N-tert.butyloxycarbonylnortropan-3b-yl)imidazole]",1 to 10,,
"C[C@H](Nc1nccc(-n2cc([C@]3(O)C[C@H]4CC[C@@H](C3)N4)nc2-c2ccc(F)cc2)n1)c1ccccc1 [Example 60, 2-(4-Fluorophenyl)-1-(2-(1-(S)-phenylethyl)amino-4-pyrimidyl)-4-(3a-hydroxy-nortropan-3b-yl)imidazole]",1 to 10,,
